What was measured:
[1] = molecular target: T1, Aromatase (Homo sapiens, UniProt P11511); assay: Inhibition of cytochrome P450 19A1 aromatase from human placental microsomes
T1 sequence (P11511 whole entry): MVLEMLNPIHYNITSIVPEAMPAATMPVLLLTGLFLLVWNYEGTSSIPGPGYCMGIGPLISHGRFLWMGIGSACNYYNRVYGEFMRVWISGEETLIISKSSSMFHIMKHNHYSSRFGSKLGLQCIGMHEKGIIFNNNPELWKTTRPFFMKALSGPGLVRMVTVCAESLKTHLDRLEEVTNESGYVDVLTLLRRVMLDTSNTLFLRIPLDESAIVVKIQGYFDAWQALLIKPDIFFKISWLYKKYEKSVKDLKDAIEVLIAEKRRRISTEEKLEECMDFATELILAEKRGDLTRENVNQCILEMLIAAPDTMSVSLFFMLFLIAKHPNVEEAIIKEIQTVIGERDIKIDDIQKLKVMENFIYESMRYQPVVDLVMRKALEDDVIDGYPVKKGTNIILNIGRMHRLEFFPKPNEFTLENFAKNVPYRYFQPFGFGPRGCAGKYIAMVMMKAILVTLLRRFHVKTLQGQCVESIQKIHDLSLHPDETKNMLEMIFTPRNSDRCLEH

[2] = molecular target: T1, Aromatase; assay: Inhibition of aromatase cytochrome P450 from human placental microsomes; 800-1000

| SMILES | IC50 [1] [nM] | IC50 [2] [nM] |
| --- | --- | --- |
| CC12CCC3C(Cc4c5c(nn4C/C=C/c4ccccc4)C(=O)CCC53C)C1CCC2=O (configuration not stated) | 950 | – |
| CC12CCC3C(Cc4nn(C/C=C/c5ccccc5)c5c4C3(C)CCC5=O)C1CCC2=O (configuration not stated) | – | 800 |
| CC12CCC3C(Cc4nn(Cc5ccc([N+](=O)[O-])cc5)c5c4C3(C)CCC5=O)C1CCC2=O (configuration not stated) | 658 | – |
| CC12CCC3C(Cc4nn(Cc5ccccc5)c5c4C3(C)CCC5=O)C1CCC2=O (configuration not stated) | 342 | – |
| CC12CCC3C(Cc4c5c(nn4Cc4ccc([N+](=O)[O-])cc4)C(=O)CCC53C)C1CCC2=O (configuration not stated) | 490 | – |
| CC12CCC3C(Cc4c5c(nn4Cc4ccccc4)C(=O)CCC53C)C1CCC2=O (configuration not stated) | 245 | – |
| CC12CCC3C(Cc4[nH]nc5c4C3(C)CCC5=O)C1CCC2=O (configuration not stated) | 236 | – |
